Experimental data reported in PubChem BioAssay (NCI).
“And” between values parts separate entries of the source, which are not always exact repeats. Equal values may be shown once.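 All cell lines were grown in 96-well plates and treated with compound for 48 hours. GI50: concentration for 50% inhibition of growth. TGI: concentration producing complete growth inhibition.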

How the values were obtained:
Test in all cases: NCI tumour cell line growth inhibition, 48 h
NCI-H522 lung = test system: NCI-H522 lung
OVCAR-3 ovarian = test system: OVCAR-3 ovarian
NCI/ADR-RES ovarian = test system: NCI/ADR-RES ovarian
MALME-3M melanoma = test system: MALME-3M melanoma
HL-60(TB) leukemia = test system: HL-60(TB) leukemia
OVCAR-4 ovarian = test system: OVCAR-4 ovarian
NCI-H226 lung = test system: NCI-H226 lung
CAKI-1 renal = test system: CAKI-1 renal
DMS 114 small cell lung = test system: DMS 114 small cell lung

SMILES	GI50 (NCI-H522 lung)	TGI (NCI-H522 lung)	GI50 (OVCAR-3 ovarian)	TGI (OVCAR-3 ovarian)	GI50 (NCI/ADR-RES ovarian)	TGI (NCI/ADR-RES ovarian)	GI50 (MALME-3M melanoma)	TGI (MALME-3M melanoma)	GI50 (HL-60(TB) leukemia)	TGI (HL-60(TB) leukemia)	GI50 (OVCAR-4 ovarian)	TGI (OVCAR-4 ovarian)	GI50 (NCI-H226 lung)	TGI (NCI-H226 lung)	GI50 (CAKI-1 renal)	TGI (CAKI-1 renal)	TGI (DMS 114 small cell lung)
CC1=C(CCC(C)NCc2ccc(OCCCN3CCCCC3)cc2)C(C)(C)CCC1 (centres undefined)	1.45 µM	3.21 µM	1.79 µM	4.07 µM	1.72 µM	3.47 µM	1.6 µM	3.29 µM	2.14 µM	4.2 µM	1.99 µM	5.5 µM	3.82 µM	16.5 µM	1.82 µM	3.92 µM	
CC(C)(c1ccccc1)c1ccc(Oc2ccc(C#N)c(C#N)c2)cc1	16.9 µM	84.8 µM					> 100 µM	> 100 µM		> 100 µM		> 100 µM			> 100 µM	> 100 µM	> 100 µM
COC(=O)C1=C(C)NC(C)=C(C(=O)OCC(C)C)C1c1ccccc1[N+](=O)[O-] (centres undefined)	2.4 µM	10.7 µM	6.35 µM	19.6 µM	2.07 µM	16.8 µM	4.47 µM	17.2 µM	2.73 µM	9.46 µM	2.32 µM	11.8 µM	3.75 µM	15.1 µM	2.29 µM	11 µM	
CC1=C(C(=O)N(C)c2ccc(Cl)c(C(=O)OC(C)C)c2)SCCO1		> 100 µM		> 100 µM		> 100 µM		> 100 µM		> 100 µM		> 100 µM		> 100 µM		> 100 µM	
Cc1ccc(-c2nc3nc(-c4ccccc4)nc(N4CCNCC4)c3o2)cc1	0.745 µM	2.26 µM	0.187 µM	0.352 µM	0.776 µM	2.21 µM	1.81 µM	3.59 µM	0.215 µM	0.463 µM	0.435 µM	1.6 µM	1.79 µM	3.79 µM	1.53 µM	2.95 µM	
COc1ccccc1CNCCCN1C(=O)c2ccc3c4c(ccc(c24)C1=O)C(=O)N(CCCN)C3=O	1.51 µM	2.97 µM	0.329 µM	1.06 µM	2.86 µM	9.6 µM	0.36 µM	1.07 µM	0.826 µM	2.54 µM	0.23 µM	0.843 µM	1.85 µM	3.92 µM	1.76 µM	4.73 µM	
N#CSCc1ccc(Cl)c(CSC#N)c1	0.0816 µM	9.06 µM	0.165 µM	18.1 µM	1.9 µM	> 60.9 µM	9.8 µM	37.8 µM	0.0468 µM	2.48 µM	0.659 µM	19.4 µM	3.11 µM	10.3 µM	0.169 µM	21.7 µM	
CC[C@H](CO)Nc1nc(NCc2ccccc2)c2ncn(C(C)C)c2n1		57.8 µM	12.9 µM	> 67.4 µM	10.9 µM	56.6 µM		50 µM		> 79.9 µM	26.8 µM	> 88.5 µM		> 93.7 µM	10.9 µM	> 100 µM	
O=[N+]([O-])c1ccc(N=Nc2ccc(O)c3ccccc23)cc1	2.23 µM	8.18 µM	1.77 µM	6 µM	2.41 µM	55.8 µM	12 µM	32.7 µM	5.39 µM	21 µM	2.83 µM	> 100 µM	26.3 µM	> 100 µM	4.17 µM	> 100 µM	
OCCn1cnc2c(SCc3ccccc3)ncnc21		> 100 µM		> 100 µM		> 100 µM		> 100 µM		> 100 µM		> 100 µM		> 100 µM		> 100 µM	
O1[As]2O[As]3O[As]1O[As](O2)O3	0.256 µM	1.03 µM	0.283 µM	0.72 µM	1.43 µM	5.11 µM	0.477 µM	2.08 µM	0.344 µM	1.73 µM	1.06 µM	11.9 µM	1.01 µM	4.64 µM	0.567 µM	3.13 µM	
CN(C)CC1CCC2=C(C1=O)C(c1ccc(Cl)c(Cl)c1)C1=C(CCC(CN(C)C)C1=O)O2 (centres undefined)	1.81 µM	3.37 µM	1.6 µM	5.89 µM	19.4 µM	57.4 µM	14.9 µM	29.5 µM	0.773 µM	3.53 µM	15.4 µM	29.9 µM	15.3 µM	31.2 µM	1.58 µM	3.03 µM	
NC(=O)c1ccc(-c2nc(-c3ccc4c(c3)OCO4)c(-c3ccccn3)[nH]2)cc1	> 25 µM and 22.3 µM	> 25 µM and 72.5 µM	> 25 µM and 35.3 µM	> 100 µM	> 25 µM and 32.3 µM	> 100 µM	> 25 µM and 38.2 µM	> 100 µM	> 25 µM and 29.6 µM	> 25 µM and 69.1 µM	> 25 µM and 31.1 µM	> 100 µM	> 25 µM and 22.2 µM	> 63.1 µM	> 25 µM and 22.7 µM	> 100 µM	
CC(C)CCNCC(O)Cn1c2ccccc2c2ccccc21 (centres undefined)	13.6 µM	27.7 µM	13.4 µM	26.8 µM	14.2 µM	30.7 µM	7.17 µM	23 µM	14.3 µM	31.6 µM	12.9 µM	27.2 µM	15.7 µM	37.9 µM	14.3 µM	29.8 µM	
c1ccc2[nH]c(-c3cc(-c4ccc5c(c4)OCO5)n[nH]3)nc2c1	1.98 µM	10.3 µM	3.21 µM	14.6 µM	4.08 µM	27.1 µM	2.33 µM	13.2 µM	2.27 µM	20.2 µM	2.16 µM	12 µM	4.2 µM	21 µM	2.74 µM	17.7 µM	
COC(=N)c1c(N)[n+]([O-])c2ccc(F)cc2[n+]1[O-]	54.7 µM	> 100 µM	> 100 µM	> 100 µM	> 100 µM	> 100 µM	66.3 µM	> 100 µM	> 100 µM	> 100 µM	> 100 µM	> 100 µM	> 100 µM	> 100 µM	> 100 µM	> 100 µM	
